# Source: patent publication US10406120B2, “Methods and compositions for treating kidney disorders” (Golden Biotechnology Corporation, priority 2013, dated 2019)
# Key:
# [1] = system: IL-1β; experiment: AcP-IgAN model: serum IL-1β ELISA; assay type: in vivo, B cell-deficient mice; details: AcP-IgAN mice, day 28, vs control AcP-IgAN mice (FIG. 15C)
# Protocol: (§1) B cell-deficient mice (B6.129S2-Igh-6tm1Cgn/J) were obtained from the Academia Sinica (Professor John T. Kung, Institute of Molecular Biology), and maintained at the animal center of the National Defense Medical Center, Taipei, Taiwan. AcP-IgAN was induced in the mice by daily injection of purified IgA anti-phosphorylcholine antibodies and pneumococcal C-polysaccharide (PnC) as described previously (Chao, et al., Kidney Int. 70:283-297; 2006). All animal experiments were performed with the approval of the Institutional Animal Care and Use Committee of The National Defense Medical Center, Taiwan, and were consistent with the NIH Guide for the Care and Use of Laboratory Animals.
# Serum levels of IL-1β (eBiosceience, CA), IL-6 (eBiosceience), IL-18 (MBL, Japan), and MCP-1 (eBiosceience) were measured using commercial ELISA kits according to the manufacturer's instructions.
# [2] = system: Nrf2; experiment: FSGS model: Western blot of nuclear Nrf2 in kidney; assay type: in vivo, BALB/c mice; details: FSGS mice, day 14 to day 21, vs control FSGS mice or normal controls
# Protocol: Experiments described herein were performed on 8-week-old female BALB/c mice. The FSGS mice were injected intravenously with a single dose of adriamycin (0.1 mg/10 g body weight). The mice were given Compound 1 six hours before adriamycin injection by gavage daily till sacrifice. BALB/c mice intraperitoneal injected with normal saline were used as normal controls, while ASLN mice given vehicle (corn oil) by gavage were used as disease controls. Mice were killed at day 7, 14, or 21 after disease induction, and spleen, renal cortical tissue, and blood samples collected and stored appropriately until analysis. All animal experiments were performed with the ethical approval of the Institutional Animal Care and Use Committee of The National Defense Medical Center, Taiwan and performed according to the ethical rules in the NIH Guide for the Care and Use of Laboratory Animals.
# The preparation of cytoplasmic and nuclear proteins of renal tissues was extracted using the Nuclear Extract Kit (Active Motif, Tokyo, Japan) according to the manufacturer's instructions. Target proteins in the cytoplasmic and/or nuclear fractions of kidney tissue were measured by Western blot analysis using rabbit antibodies against mouse Nrf2, or p47^phox (Santa Cruz). […]
# [3] = system: ROS; experiment: AcP-IgAN model: ROS levels; assay type: in vivo, B cell-deficient mice; details: AcP-IgAN mice
# Protocol: Kidney in-situ superoxide anion production was determined by DHE labeling according to the known method. (Wu, et al., Nephrol Dial Transplant, 2008, 23: 3082-3090, or Ka, et al., J. Am. Soc. Nephrol. 2007, 18:2473-2485) Fluorescent images were quantified by counting the percentage of positive nuclei in the total nuclei per kidney cross section. Sera and kidney tissues were assessed for superoxide anion according to the known method. (Wu, et al., J Pineal Res, 2001, 30: 147-156, or Ka, et al., J. Am. Soc. Nephrol. 2007, 18:2473-2485) For ROS levels of serum, urine, and renal tissue, the samples were incubated with Krebs-HEPES buffer, and lucigenin (Sigma-Aldrich Chemical Co, MO) at 1.25 mM was used as substrate. Luminescence counts were obtained in duplicate at 15 sec intervals by a microplate luminometer (Hidex Microplate Luminometer, Finland), as previously described (Kretzler, et al.,. Virchows Arch, 425: 181-193, 1994). The superoxide anion activity was expressed as relative luminescence units (RLU) per 15 min per mg of organ dry weight (i.e., RUL/15 min/mg) or RLU/15 min/ml.
# as §1
# [4] = system: Nrf2; experiment: AcP-IgAN model: renal Nrf2 mRNA and protein; assay type: in vivo, B cell-deficient mice; details: AcP-IgAN mice, day 3 until day 28, vs control AcP-IgAN mice
# Protocol: as §1
# Nuclear proteins were extracted using a nuclear extract kit (Active Motif, Japan). Phospho-NF-κB p65 and nuclear factor-erythroid-2-related factor 2 (NrF2) were measured in renal tissue nuclear protein extracts using Trans-AM ELISA assay kits (Active Motif), according to the manufacturer's instructions. Renal cytosolic protein extracts using RIPA buffer (Cell signaling). Cytosolic glutathione peroxidase (GPx) (Cayman, Mich.) and cytosolic heme oxygenase-1 (HO-1) (Enzo Life Sciences, NY) were measured using commercial ELISA kits according to the manufacturer's instructions. Both were expressed relative to the protein concentration in the lysate. […]
# [5] = system: IL-6; experiment: AcP-IgAN model: renal IL-6 mRNA and protein; assay type: in vivo, B cell-deficient mice; details: AcP-IgAN mice
# Protocol: as §1
# For IHC, formalin fixed and paraffin embedded tissue sections or frozen sections were incubated with against IL-6 (R&D Systems, MN), MCP-1 (Santa Cruz, Calif.), F4/80 (monocytes/macrophages; Serotec, N.C.), collagen IV (Southern Biotech, AL), TGF-β1 (Santa Cruz), phopsho-NFκB p65 (Cell Signaling, MA), CD3 (pan-T cell; Serotec), CD4 (T helper cell; BioLegend, CA), CD8 (cytotoxic T cell), CD11b (macrophages/neutrophils), or CD11c (dendritic cells) (BD Biosciences, CA) antibodies. The FITC-conjugated, Alexa Fluor 488-conjugated (Invitrogen, CA) or horseradish peroxidase (HRP) conjugated secondary antibodies (DAKO, Denmark) were then applied to the sections. Hematoxylin or 4′,6-diamidino-2-phenylindole (DAKO) was used in the counter staining for nuclei.
# Total cortical kidney RNA was extracted with TriZOL reagents (Invitrogen) from cortical tissue of the kidney. For first-strand cDNA synthesis, 1.5 μg of total RNA was used in a single-round reverse transcriptase reaction. The reaction mixture consisted of 0.9 μl of Oligo (dT) 12 to 18 primer, 1.0 mM deoxyribonucleotide triphosphate (dNTP), 1 μl first strand buffer, 0.4 mM dithiothreitol, 80 U of RNaseout recombinant ribonuclease inhibitor, and 300 U of superscript II RNase H (Invitrogen). Real-time PCR was performed on an ABI Prism 7700 Sequence Detection System (Applied Biosystems, CA). […]
# [6] = day 28, vs control AcP-IgAN mice
smiles,measurement,setting,value
"COC1=C(OC)[C@H](O)[C@H](C/C=C(\C)CC/C=C(\C)CCC=C(C)C)[C@@H](C)C1=O [Compound 1, Antroquinonol]",serum levels of IL-1β (increase),[1],greatly inhibited
same,Nrf2 translocation into nuclei,[2],strongly augmented
same,ROS levels in sera,"[3]; day 3, vs control AcP-IgAN mice",substantial reduction
same,ROS levels in renal tissues,[3]; [6],substantial reduction
same,ROS levels in sera,[3]; [6],substantial reduction
same,ROS levels in urine,[3]; [6],substantial reduction
same,renal expression levels of mRNA of Nrf2,[4],greatly increased
same,renal expression levels of protein of Nrf2,[4],greatly increased
same,renal expression levels of mRNA and protein of IL-6,[5]; day 3,no such effect
same,renal expression levels of mRNA of IL-6,[5]; [6],significantly reduced
same,renal expression levels of protein of IL-6,[5]; [6],significantly reduced
